Test system: Plasmodium berghei
Assay: Luciferase/luciferin-expressing antifolate-resistant parasites were used to infect a culture of HepG2 cells that were pre-incubated with compounds. Infected hepatocytes emit light due to the luciferase reaction. Assay results are presented as the percent inhibition of light emission compared to control. […]
Assay type: functional
Settings: sporozoite; for IC90: read-out: LUCIFERASE INFECTION ASSAY - IC90

SMILES | IC90 | also measured
O=C1C=CC(=O)N1c1ccc(F)cc1F | 13.8 µM | IC50 (FFLUC_HILL_SLOPE 8.62, FFLUC_R_SQUARED 0.718, PBLUC_HILL_SLOPE 4.26, PBLUC_R_SQUARED 0.573, read-out: LUCIFERASE INFECTION ASSAY - IC50): 8.24 µM
Cc1onc(-c2ccc(Cl)cc2Cl)c1-c1csc(N/N=C/c2ccccc2Cl)n1 | > 7.12 µM | IC50 (FFLUC_HILL_SLOPE 8.51, FFLUC_R_SQUARED 0.488, HEPG2TOX_HILL_SLOPE 2.88, HEPG2TOX_R_SQUARED 0.834, read-out: LUCIFERASE INFECTION ASSAY - IC50): > 7.12 µM
CNc1nc2cnc(Nc3cccc(F)c3)cc2n1-c1cccc(C(F)(F)F)c1 | > 10 µM | IC50 (FFLUC_HILL_SLOPE 8.44, FFLUC_R_SQUARED 0.0352, read-out: LUCIFERASE INFECTION ASSAY - IC50): > 10 µM
COc1ccc(NS(=O)(=O)c2cc(NC(=O)c3cc(C4CC4)on3)ccc2N2CCCCC2)cc1 | > 10 µM | IC50 (FFLUC_HILL_SLOPE 8.45, FFLUC_R_SQUARED 0.551, read-out: LUCIFERASE INFECTION ASSAY - IC50): > 10 µM
Cc1cc2oc(=O)cc(Cn3cnc4sc(C)c(-c5ccccc5)c4c3=O)c2cc1Cl | > 10 µM | IC50 (FFLUC_HILL_SLOPE 8.53, FFLUC_R_SQUARED 0.709, PBLUC_HILL_SLOPE 1.77, PBLUC_R_SQUARED 0.508, read-out: LUCIFERASE INFECTION ASSAY - IC50): 4.81 µM
C(=C(c1nc2ccccc2s1)c1nc2ccccc2s1)C1=C(c2ccccc2)Oc2ccccc2O1 | > 10 µM | IC50 (FFLUC_HILL_SLOPE 7.98, FFLUC_R_SQUARED 0.561, PBLUC_HILL_SLOPE 1.21, PBLUC_R_SQUARED 0.509, read-out: LUCIFERASE INFECTION ASSAY - IC50): 9.27 µM
NS(=O)(=O)c1ccc(CCNc2nn3c(-c4cccc(C(F)(F)F)c4)cnc3s2)cc1 | > 7.06 µM | IC50 (FFLUC_HILL_SLOPE 7.49, FFLUC_R_SQUARED 0.26, read-out: LUCIFERASE INFECTION ASSAY - IC50): > 7.06 µM
COCCCn1c(C)cc(C(=O)CSc2nc3scc(-c4ccccc4)c3c(=O)n2C)c1C | > 10 µM | IC50 (FFLUC_HILL_SLOPE 7.71, FFLUC_R_SQUARED 0.356, PBLUC_HILL_SLOPE 2.63, PBLUC_R_SQUARED 0.68, read-out: LUCIFERASE INFECTION ASSAY - IC50): 6.41 µM
O/N=C/c1ncc(C(F)(F)F)cc1Sc1ccc(Cl)cc1 | > 9.92 µM | IC50 (FFLUC_HILL_SLOPE 8, FFLUC_R_SQUARED 0.0374, HEPG2TOX_HILL_SLOPE 8.44, HEPG2TOX_R_SQUARED 0.673, PBLUC_HILL_SLOPE 11.8, PBLUC_R_SQUARED 0.204, read-out: LUCIFERASE INFECTION ASSAY - IC50): 9.28 µM
O=C(Nc1ccc(S(=O)(=O)N2CCCC2)cc1)c1cc([N+](=O)[O-])ccc1Sc1nnnn1-c1ccccc1 | > 10 µM | IC50 (FFLUC_HILL_SLOPE 8.42, FFLUC_R_SQUARED 0.732, read-out: LUCIFERASE INFECTION ASSAY - IC50): > 10 µM
O=C(CSc1nn(Cc2ccccc2)/c(=N\Cc2ccccc2)s1)NC(=O)NC1CCCCC1 | > 10 µM | IC50 (FFLUC_HILL_SLOPE 7.96, FFLUC_R_SQUARED 0.22, read-out: LUCIFERASE INFECTION ASSAY - IC50): > 10 µM
COC(=O)c1ccc(OC(=O)c2cc3c(s2)CCC3)cc1 | > 10 µM | IC50 (FFLUC_HILL_SLOPE 8.2, FFLUC_R_SQUARED 0.68, read-out: LUCIFERASE INFECTION ASSAY - IC50): > 10 µM
CN1CCN(c2ccc(-c3cn4c(-c5ccc(O)cc5)cnc4cn3)cc2)CC1 | > 8.56 µM | IC50 (FFLUC_HILL_SLOPE 7.73, FFLUC_R_SQUARED 0.293, read-out: LUCIFERASE INFECTION ASSAY - IC50): > 8.56 µM
CC(C)NC(=O)Nc1ccc(OCc2ncc(C(F)(F)F)cc2Cl)cc1 | > 8.51 µM | IC50 (FFLUC_HILL_SLOPE 8.07, FFLUC_R_SQUARED 0.113, HEPG2TOX_HILL_SLOPE 6.87, HEPG2TOX_R_SQUARED 0.428, PBLUC_HILL_SLOPE 0.555, PBLUC_R_SQUARED 0.618, read-out: LUCIFERASE INFECTION ASSAY - IC50): 1.56 µM
C=CCN(c1ccc(F)cc1)S(=O)(=O)c1cc(C(=O)OCC(=O)C23CC4CC(CC(C4)C2)C3)ccc1Cl | > 10 µM | IC50 (FFLUC_HILL_SLOPE 7.93, FFLUC_R_SQUARED 0.0643, HEPG2TOX_HILL_SLOPE 7, HEPG2TOX_R_SQUARED 0.225, PBLUC_HILL_SLOPE 4.62, PBLUC_R_SQUARED 0.186, read-out: LUCIFERASE INFECTION ASSAY - IC50): 6.94 µM
O=C(Cn1ncc(Cl)c(Cl)c1=O)Nc1cccc(Oc2ccccc2)c1 | > 10 µM | IC50 (FFLUC_HILL_SLOPE 8.65, FFLUC_R_SQUARED 0.47, PBLUC_HILL_SLOPE 2.15, PBLUC_R_SQUARED 0.511, read-out: LUCIFERASE INFECTION ASSAY - IC50): 6.79 µM

SMILES | IC90 | also measured
Cc1cccc(Cn2nc(C(C)(C)C)cc2-c2nnc(SCC(=O)c3ccc(Cl)cc3)o2)c1 | > 6.86 µM | IC50 (FFLUC_HILL_SLOPE 7.72, FFLUC_R_SQUARED 0.435, PBLUC_HILL_SLOPE 3.63, PBLUC_R_SQUARED 0.42, read-out: LUCIFERASE INFECTION ASSAY - IC50): 6.23 µM
COCc1nn2c3c(nnc2c1-c1ccccc1)C(=O)CC(c1ccccc1)C3 (configuration not stated) | 3.29 µM | IC50 (FFLUC_HILL_SLOPE 8, FFLUC_R_SQUARED 0.814, HEPG2TOX_HILL_SLOPE 2.3, HEPG2TOX_R_SQUARED 0.367, PBLUC_HILL_SLOPE 4.06, PBLUC_R_SQUARED 0.599, read-out: LUCIFERASE INFECTION ASSAY - IC50): 1.92 µM
Cn1c(-c2ccc(Cl)cc2)csc1=Nc1ccc(Cl)c(Cl)c1 | 3.46 µM | IC50 (FFLUC_HILL_SLOPE 8.54, FFLUC_R_SQUARED 0.841, PBLUC_HILL_SLOPE 1.64, PBLUC_R_SQUARED 0.468, read-out: LUCIFERASE INFECTION ASSAY - IC50): 0.91 µM
Cc1cc2n(n1)c(C)cc(C)[n+]2-c1ccccc1 | 4.57 µM | IC50 (FFLUC_HILL_SLOPE 7.82, FFLUC_R_SQUARED 0.313, HEPG2TOX_HILL_SLOPE 3.53, HEPG2TOX_R_SQUARED 0.979, PBLUC_HILL_SLOPE 9.65, PBLUC_R_SQUARED 0.44, read-out: LUCIFERASE INFECTION ASSAY - IC50): 3.64 µM
Cc1sc2nc(-c3cccnc3)nc(N3CCOCC3)c2c1-c1ccccc1 | 9.9 µM | IC50 (FFLUC_HILL_SLOPE 7.85, FFLUC_R_SQUARED 0.0779, PBLUC_HILL_SLOPE 15.6, PBLUC_R_SQUARED 0.278, read-out: LUCIFERASE INFECTION ASSAY - IC50): 8.61 µM
CC(C)Nc1nc(NCC2CCCCC2)c2sccc2n1 | > 10.8 µM | IC50 (FFLUC_HILL_SLOPE 8.35, FFLUC_R_SQUARED 0.136, PBLUC_HILL_SLOPE 0.461, PBLUC_R_SQUARED 0.456, read-out: LUCIFERASE INFECTION ASSAY - IC50): 1.8 µM
COc1ccc(-c2nnc(SCc3csc(-c4ccccc4)n3)n2CCc2ccccc2)cc1 | > 10 µM | IC50 (FFLUC_HILL_SLOPE 7.96, FFLUC_R_SQUARED 0.134, read-out: LUCIFERASE INFECTION ASSAY - IC50): > 10 µM
CCCCNC(=O)c1c(NC(=O)c2ccc(C(F)(F)F)cc2)nc2ccccn12 | 0.365 µM | IC50 (FFLUC_HILL_SLOPE 8.16, FFLUC_R_SQUARED 0.656, HEPG2TOX_HILL_SLOPE 0.864, HEPG2TOX_R_SQUARED 0.784, PBLUC_HILL_SLOPE 12.7, PBLUC_R_SQUARED 0.564, read-out: LUCIFERASE INFECTION ASSAY - IC50): 0.306 µM
COc1ccc(O)c(C(=O)c2cnc(Nc3nc(C)c4ccccc4n3)nc2)c1 | > 10 µM | IC50 (FFLUC_HILL_SLOPE 8.56, FFLUC_R_SQUARED 0.251, read-out: LUCIFERASE INFECTION ASSAY - IC50): > 10 µM
NC(=O)C1CCN(c2nc(/C=C/c3ccccc3)nc3sc4c(c23)CCCC4)CC1 | > 10 µM | IC50 (FFLUC_HILL_SLOPE 8.41, FFLUC_R_SQUARED 0.401, PBLUC_HILL_SLOPE 20.5, PBLUC_R_SQUARED 0.298, read-out: LUCIFERASE INFECTION ASSAY - IC50): 9.42 µM
N#CC1c2ccccc2Oc2ccccc21 | > 15.9 µM | IC50 (FFLUC_HILL_SLOPE 8.54, FFLUC_R_SQUARED 0.413, HEPG2TOX_HILL_SLOPE 16, HEPG2TOX_R_SQUARED 0.746, PBLUC_HILL_SLOPE 2.78, PBLUC_R_SQUARED 0.395, read-out: LUCIFERASE INFECTION ASSAY - IC50): 10.4 µM
CCOC(=O)C1=C(C)NC2=C(C(=O)C(c3c(F)cccc3Cl)CC2)C1c1ccc(Cl)cc1Cl (configuration not stated) | > 6.49 µM | IC50 (FFLUC_HILL_SLOPE 7.96, FFLUC_R_SQUARED 0.479, HEPG2TOX_HILL_SLOPE 1.9, HEPG2TOX_R_SQUARED 0.947, PBLUC_HILL_SLOPE 15.9, PBLUC_R_SQUARED 0.177, read-out: LUCIFERASE INFECTION ASSAY - IC50): 6.08 µM
NC(=O)c1ccsc1NC(=O)CN1CCC(c2c[nH]c3ccccc23)CC1 | > 10 µM | IC50 (FFLUC_HILL_SLOPE 7.73, FFLUC_R_SQUARED 0.279, read-out: LUCIFERASE INFECTION ASSAY - IC50): > 10 µM
O=c1[nH]c2ccccc2c(-c2ccccc2)c1SCc1ccc2c(c1)OCO2 | > 10 µM | IC50 (FFLUC_HILL_SLOPE 8.09, FFLUC_R_SQUARED 0.216, HEPG2TOX_HILL_SLOPE 4.47, HEPG2TOX_R_SQUARED 0.957, PBLUC_HILL_SLOPE 2.12, PBLUC_R_SQUARED 0.535, read-out: LUCIFERASE INFECTION ASSAY - IC50): 4.38 µM
O=C1C(Cl)=C(Nc2ccc(O)cc2)C(=O)c2ccccc21 | 4.51 µM | IC50 (FFLUC_HILL_SLOPE 7.86, FFLUC_R_SQUARED 0.408, HEPG2TOX_HILL_SLOPE 4.2, HEPG2TOX_R_SQUARED 0.984, PBLUC_HILL_SLOPE 12.7, PBLUC_R_SQUARED 0.571, read-out: LUCIFERASE INFECTION ASSAY - IC50): 3.8 µM
